Source: PMC8486872, “A rational blueprint for the design of chemically-controlled protein switches” (Nature Communications, 2021)
Where “and” joins values, the source holds several entries; their conditions need not be identical. Equal values may be shown once. Entries after “also recorded” stand apart in the source; their conditions may differ.

Tests used:
Bcl2:LD3 complex (CDH-2) = Bcl2:LD3 complex (CDH-2) (Homo sapiens, UniProt P10415); experiment: SEC-MALS drug-induced monomerization of Bcl2:LD3; conditions: 50 µM proteins, 100 µM drug
Chain of Bcl2:LD3 complex (CDH-2) (P10415 with tags, fused parts or gaps): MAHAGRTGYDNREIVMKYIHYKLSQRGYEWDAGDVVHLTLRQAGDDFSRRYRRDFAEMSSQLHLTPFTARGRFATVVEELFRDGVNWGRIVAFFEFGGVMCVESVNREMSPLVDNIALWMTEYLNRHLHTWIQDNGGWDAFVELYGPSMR
Protocol: LD6 was further characterized by Size Exclusion Chromatography coupled to Light Scattering (SEC-MALS) for solution behavior, and to study dimerization and drug-induced monomerization properties. LD6 was injected at 50–100 µM into a Superdex^TM 75 300/10 GL column (GE Healthcare) using a high-performance liquid chromatography system (Ultimate 3000, Thermo Scientific) at a flow rate of 0.5 ml/min. The UV spectrum at 280 nm was collected along with static light scatter signal by a MALS device (miniDAWN TREOS, Wyatt). […] Then the mixtures were treated with either 100 µM (two-fold excess) of the corresponding drugs or the same volume of DMSO to detect complex formation and forced dissociation in SEC-MALS. The light scatter signal of the sample was collected from three different angles and the results were analyzed using the ASTRA software (version 6.1, Wyatt).
Supplementary Figure 1: Biophysical characterization of CDH-2.
Drug concentrations from 0.01 nM to
10 µM were pre-incubated with 4 µM LD3, then the mixtures were injected over a Bcl2-immobilized chip.
Response units reflect the remaining interaction of Bcl2 and LD3 in the presence of serial diluted Drug-
2. d) SEC-MALS analysis of CDH-2 showing Bcl2:LD3 complex with DMSO (black trace) and Bcl2:LD3
and LD3 (16 kDa) eluted around 22 minutes.
(1 picture or pasted object on this page, not shown here)

[1] = system: SEAP and Luciferase expression in HEK293T cells; experiment: SIMO designer cells (AIR-1/2-GEMS + CDH-1/2-TF); assay type: cell-based; parameters: Bottom (best-fit value) / Top (best-fit value) / Span (best-fit value): unit not given here
Excerpt: Fig. 5 Orthogonal chemical switches enable implementation of multi-input multi-output control modes in mammalian cells. a Scheme of multi-inputs multi-outputs (MIMO) designer cells where two drugs control two different outputs. b, c Cells were co-transfected with AIR-1/2-GEMS and CDH-3-TF regulate SEAP and Luciferase expression, respectively. […] AIR-1/2-GEMS coupled with SEAP expression circuits were co-transfected with CDH-1/2-TF circuits which control the Luciferase production. Respective drug concentrations ranged from 0.001 nM to 1 µM. All values presented are mean ± s.d. of three replicates and curves were fitted by four-parameters nonlinear regression. b, c, e, f, h, i Source data are available in the source data file.
Finally, we engineered SIMO cells (Fig. 5g) using two designed switches that produce ON and OFF responses upon exposure to the same drug. We transfected cells with combinations of AIR-GEMS and CDH-TFs which controlled the expression of the reporter proteins SEAP and Luciferase, respectively. […] Therefore, computational design expanded the repertoire of protein switches controlled by the same compounds that can be used to simultaneous turn ON and OFF synergistic outputs. […]
AIR-1-GEMS coupled with SEAP expression circuits (i) and CDH-1-TF circuits which control the Luciferase production (j). j-k) Quantification of SEAP and Luciferase activities under Drug-2. AIR-2-GEMS coupled with SEAP expression circuits (k) and CDH-2-TF circuits which control the Luciferase production (l). b-k) Each data point represents the mean of n = 3 biological replicates, and the dose-dependent curve were fitted using four-parameter nonlinear regression.

[2] = system: JAK/STAT pathway SEAP expression in HEK293T cells; experiment: AIR-GEMS ON-switch SEAP assay; conditions: Homo sapiens, HEK-293T, read-out: EC50, AIR-2-GEMS activation by Drug-2
Protocol: We fused the AIR components in the ectodomains of the GEMS and measured SEAP activity as a reporter for drug-triggered activation.
HEK293T cells were maintained in DMEM medium with 10% FBS (Gibco) and Pen/Strep (Thermo Fisher). Cells were maintained and split every two days at around 80% confluence. HEK293T cells were seeded 24 h before transfection, and transfected with the lipofectamine 3000 kit (Thermo Fisher). Plasmids were cotransfected according to the Table S7. For the drug OFF-switch experiments, drugs were added 12 h post transfection and incubated with cells for 24 h before the SEAP detection assay.
Representative data of cellular assays are presented as individual values and mean values (bars). n = 3 refers to biological replicates. All IC50/EC50 values of cellular assays (CDH-TF, CDH-GEMS, AIR-TF and AIR-GEMS) reported were calculated using four-parameter nonlinear regression ± s.d.
Bcl2 mutants were cloned into the AIR-GEMS

[3] = Fig S13j, AIR-2-GEMS control SEAP expression only, Drug-2 3.16 nM
[4] = Fig S13j, AIR-2-GEMS control SEAP expression only, Drug-2 10 nM
[5] = Fig S13j, AIR-2-GEMS control SEAP expression only, Drug-2 100 nM
[6] = Fig S13j, AIR-2-GEMS control SEAP expression only, Drug-2 316 nM
[7] = Fig S13j, AIR-2-GEMS control SEAP expression only, Drug-2 1000 nM
[8] = sheet Figure5i, SEAP, four-parameter fit

CC1(C)CCC(CN2CCN(c3ccc(C(=O)NS(=O)(=O)c4ccc(NCC5CCOCC5)c([N+](=O)[O-])c4)c(Oc4cnc5[nH]ccc5c4)c3)CC2)=C(c2ccc(Cl)cc2)C1 [Drug-2, Venetoclax]
disruption of Bcl2:LD3 complex by SEC-MALS (Bcl2:LD3 complex (CDH-2)): effectively disrupts; also recorded: did not result in complex formation | SEAP and Luciferase outputs in SIMO cells ([1]; 0.001 nM to 1 µM): simultaneously activated SEAP production and suppressed the expression of Luciferase | SEAP ([1]; Fig5i, turn ON (title: via AIR-1-GEMS), 0.001 nM): 11.0539 U/L and 12.4374 U/L and 11.7528 U/L | SEAP ([1]; Fig5i, turn ON (title: via AIR-1-GEMS), 0.005 nM): 14.3953 U/L and 10.7601 U/L and 8.34 U/L | SEAP ([1]; Fig5i, turn ON (title: via AIR-1-GEMS), 0.05 nM): 12.0377 U/L and 10.3343 U/L and 7.481 U/L | SEAP ([1]; Fig5i, turn ON (title: via AIR-1-GEMS), 0.5 nM): 13.1482 U/L and 9.328 U/L and 7.802 U/L | SEAP ([1]; Fig5i, turn ON (title: via AIR-1-GEMS), 1 nM): 16.8267 U/L and 13.7148 U/L and 13.9654 U/L | SEAP ([1]; Fig5i, turn ON (title: via AIR-1-GEMS), 5 nM): 12.4083 U/L and 18.0777 U/L and 19.7017 U/L | SEAP ([1]; Fig5i, turn ON (title: via AIR-1-GEMS), 10 nM): 32.3034 U/L and 32.696 U/L and 36.5671 U/L | SEAP ([1]; Fig5i, turn ON (title: via AIR-1-GEMS), 50 nM): 48.8555 U/L | SEAP ([1]; Fig5i, turn ON (title: via AIR-1-GEMS), 100 nM): 61.1746 U/L and 72.5404 U/L | SEAP ([1]; Fig5i, turn ON (title: via AIR-1-GEMS), 500 nM): 94.0018 U/L and 86.0577 U/L | SEAP ([1]; Fig5i, turn ON (title: via AIR-1-GEMS), 1000 nM): 105.374 U/L and 86.4725 U/L | SEAP ([1]; Fig S13j, AIR-2-GEMS control SEAP expression only, Drug-2 0.01 nM): 269 U/L and 225 U/L and 167 U/L | SEAP ([1]; Fig S13j, AIR-2-GEMS control SEAP expression only, Drug-2 1 nM): 225 U/L and 173 U/L and 167 U/L | Luciferase [1, 3]: 18.3864 RLU and 14.0122 RLU and 11.0547 RLU | SEAP [1, 3]: 199 U/L and 215 U/L and 123 U/L | Luciferase [1, 4]: 59.3143 RLU and 64.1927 RLU and 53.9121 RLU | SEAP [1, 4]: 143 U/L and 145 U/L and 125 U/L | SEAP ([1]; Fig S13j, AIR-2-GEMS control SEAP expression only, Drug-2 31.6 nM): 149 U/L and 123 U/L | Luciferase [1, 5]: 277.707 RLU and 262.611 RLU and 223.323 RLU | SEAP [1, 5]: 157 U/L and 127 U/L and 107 U/L | Luciferase [1, 6]: 280.311 RLU and 280.175 RLU and 202.801 RLU | SEAP [1, 6]: 177 U/L and 117 U/L and 123 U/L | Luciferase [1, 7]: 203.844 RLU and 222.434 RLU and 194.549 RLU | SEAP [1, 7]: 191 U/L and 169 U/L and 179 U/L | SEAP ([1]; Fig S13k, CDH-2-TF control Luciferase expression only, Drug-2 0.01 nM): 77283 U/L and 94282 U/L and 94549 U/L | SEAP ([1]; Fig S13k, CDH-2-TF control Luciferase expression only, Drug-2 0.1 nM): 83949 U/L and 102019 U/L and 91551 U/L | SEAP ([1]; Fig S13k, CDH-2-TF control Luciferase expression only, Drug-2 1 nM): 97527 U/L and 93132 U/L and 98408 U/L | SEAP ([1]; Fig S13k, CDH-2-TF control Luciferase expression only, Drug-2 3.16 nM): 96858 U/L and 87221 U/L and 87443 U/L | SEAP ([1]; Fig S13k, CDH-2-TF control Luciferase expression only, Drug-2 10 nM): 78643 U/L and 87229 U/L and 90599 U/L | SEAP ([1]; Fig S13k, CDH-2-TF control Luciferase expression only, Drug-2 31.6 nM): 80585 U/L and 86321 U/L and 73406 U/L | SEAP ([1]; Fig S13k, CDH-2-TF control Luciferase expression only, Drug-2 100 nM): 64234 U/L and 74136 U/L and 75517 U/L | SEAP ([1]; Fig S13k, CDH-2-TF control Luciferase expression only, Drug-2 316 nM): 47807 U/L and 51555 U/L and 52806 U/L | SEAP ([1]; Fig S13k, CDH-2-TF control Luciferase expression only, Drug-2 1000 nM): 34743 U/L and 30667 U/L and 26001 U/L | IC50 ([1]; Homo sapiens, HEK-293T, sheet Figure5i, SEAP column (turn ON), four-parameter fit, given as IC50, read-out: IC50 (best-fit value)): 5.24 nM | Bottom (best-fit value) [1, 8]: 28.34 | HillSlope (best-fit value) [1, 8]: 1.403 | Span (best-fit value) [1, 8]: 390.7 | Top (best-fit value) [1, 8]: 419 | logIC50 (best-fit value) ([1]; sheet Figure5i, SEAP, four-parameter fit, drug in nM): 0.7193 | EC50 [2]: 0.5 nM
